Structures are written as SMILES.

Usually Ki stands for a measure of affinity in units of concentration, obtained from inhibition or displacement.

T1 sequence (P08473 whole entry): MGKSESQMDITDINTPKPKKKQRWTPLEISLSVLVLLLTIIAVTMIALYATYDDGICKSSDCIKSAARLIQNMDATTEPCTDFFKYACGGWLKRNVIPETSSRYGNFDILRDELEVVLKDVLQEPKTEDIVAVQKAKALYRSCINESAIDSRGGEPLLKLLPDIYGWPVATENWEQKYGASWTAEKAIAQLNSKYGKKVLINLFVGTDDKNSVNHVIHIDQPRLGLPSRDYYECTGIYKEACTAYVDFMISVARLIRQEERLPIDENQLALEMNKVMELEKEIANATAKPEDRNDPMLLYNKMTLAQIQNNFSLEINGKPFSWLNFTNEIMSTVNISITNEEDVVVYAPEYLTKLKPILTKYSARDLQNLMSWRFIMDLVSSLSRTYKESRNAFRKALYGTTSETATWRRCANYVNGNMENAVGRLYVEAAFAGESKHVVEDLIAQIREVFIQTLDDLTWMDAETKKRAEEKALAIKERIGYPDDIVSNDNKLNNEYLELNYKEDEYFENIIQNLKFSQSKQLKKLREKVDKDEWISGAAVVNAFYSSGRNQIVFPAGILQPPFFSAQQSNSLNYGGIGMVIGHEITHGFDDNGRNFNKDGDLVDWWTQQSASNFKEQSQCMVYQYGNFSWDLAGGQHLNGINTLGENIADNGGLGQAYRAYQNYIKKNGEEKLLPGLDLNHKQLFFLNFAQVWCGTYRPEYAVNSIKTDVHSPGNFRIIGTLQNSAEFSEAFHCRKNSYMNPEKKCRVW

This test has as its target T1, human NEP (Homo sapiens, UniProt P08473).
T1 construct: purchased R&D Systems, Minneapolis, Minn; 1182-ZN
Kind of test: In vitro enzyme inhibition assay at human NEP (Assay 1). The test is classed as biochemical. As to conditions: recombinant enzyme, fluorogenic peptide substrate, 37° C. Put shortly: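 Recombinant enzyme preincubated with compound 30 min at 37 °C, then 10 μM Mca-D-Arg-Arg-Leu-Dap-(Dnp)-OH added in 50 mM HEPES pH 7.5, 100 mM NaCl, 0.01% Tween-20, 10 μM ZnSO4; stopped after 20 min with acetic acid. Fluorescence read at 320/405 nm; Ki from nonlinear fit of v=v0/[1+(I/K′)], reported as pKi.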
`CCc1cc(C(=O)NN(Cc2ccc(-c3cc(Cl)ccc3F)cc2)C[C@@H](O)C(=O)O)on1` [Example 8-14, (R)-3-[N-(5′-Chloro-2′-fluoro-biphenyl-4-ylmethyl)-N′-(3-ethyl-isoxazole-5-carbonyl)-hydrazino]-2-hydroxy-propionic acid]: the Ki is no more than 1 nM.

Regarding `COc1cc(C(=O)NN(Cc2ccc(-c3cc(Cl)ccc3F)cc2)C[C@@H](O)C(=O)O)on1` [Example 8-9, (R)-3-[N-(5′-Chloro-2′-fluoro-biphenyl-4-ylmethyl)-N′-(3-methoxy-isoxazole-5-carbonyl)-hydrazino]-2-hydroxy-propionic acid], the inhibition constant Ki is no more than 1 nM.

Regarding `O=C(NC1CC1)c1cc(C(=O)NN(Cc2ccc(-c3ccccc3)cc2)C[C@@H](O)C(=O)O)[nH]n1` [Example 2-4, (R)-3-[N-Biphenyl-4-ylmethyl-N′-(5-cyclopropylcarbamoyl-2H-pyrazole-3-carbonyl)-hydrazino]-2-hydroxypropionic acid], the Ki is 12.6 to 100 nM.

Turning to `O=C(NN(Cc1ccc(-c2cc(Cl)cc(Cl)c2)cc1)C[C@@H](O)C(=O)O)c1cn(O)nn1` [Example 8-81, (R)-3-[N-(3′,5′-Dichloro-biphenyl-4-ylmethyl)-N′-(1-hydroxy-1H-[1,2,3]triazole-4-carbonyl)-hydrazino]-2-hydroxy-propionic acid], the Ki is 12.6 to 100 nM.

Turning to `COc1ccccc1C(=O)Nc1cc(C(=O)NN(Cc2ccc(-c3cc(Cl)ccc3F)cc2)C[C@@H](O)C(=O)O)[nH]n1` [Example 8-49, (R)-3-{N-(5′-Chloro-2′-fluoro-biphenyl-4-ylmethyl)-N′-[5-(2-methoxy-benzoylamino)-2H-pyrazole-3-carbonyl]-hydrazino}-2-hydroxy-propionic acid], the Ki is no more than 1 nM.

With `O=C(NN(Cc1ccc(-c2cccc(Cl)c2)cc1)C[C@@H](O)C(=O)O)c1nc(Cl)n[nH]1` [Example 4-1, (R)-3-[N-(3′-Chlorobiphenyl-4-ylmethyl)-N′-(5-chloro-2H-[1,2,4]triazole-3-carbonyl)-hydrazino]-2-hydroxy-propionic acid], the Ki is 1.26 to 10 nM.

On to `CC(C)c1cc(C(=O)NN(Cc2ccc(-c3cc(Cl)ccc3F)cc2)C[C@@H](O)C(=O)O)nn1CC(=O)O` [Example 8-54, (R)-3-[N′-(1-Carboxymethyl-5-isopropyl-1H-pyrazole-3-carbonyl)-N-(5′-chloro-2′-fluoro-biphenyl-4-ylmethyl)-hydrazino]-2-hydroxy-propionic acid], for which the Ki is 1.26 to 10 nM.

In the case of `O=C(NN(Cc1ccc(-c2cc(Cl)ccc2F)cc1)C[C@@H](O)C(=O)O)c1c[nH]c(=O)o1` [Example 8-74, (R)-3-[N-(5′-Chloro-2′-fluoro-biphenyl-4-ylmethyl)-N′-(2-oxo-2,3-dihydro-oxazole-5-carbonyl)-hydrazino]-2-hydroxy-propionic acid], the Ki is no more than 1 nM.

For `O=C(NN(Cc1ccc(-c2ccccc2O)cc1)C[C@@H](O)C(=O)O)c1cc(O)no1` [Example 5-6, (R)-2-Hydroxy-3-[N-(2′-hydroxy-biphenyl-4-ylmethyl)-N′-(3-hydroxy-isoxazole-5-carbonyl)-hydrazino]-propionic acid], the inhibition constant Ki was 1.26 to 10 nM.

Take `O=C(NN(Cc1ccc(-c2cc(Cl)ccc2F)cc1)C[C@@H](O)C(=O)O)c1n[nH]c(Cl)n1` [Example 8-82, (R)-3-[N-(5′-Chloro-2′-fluoro-biphenyl-4-ylmethyl)-N′-(5-chloro-1H-[1,2,4]triazole-3-carbonyl)-hydrazino]-2-hydroxy-propionic acid]: the Ki was no more than 1 nM.

In the case of `O=C(NN(Cc1ccc(-c2cccc(C(F)(F)F)c2)cc1)C[C@@H](O)C(=O)O)c1cc(O)no1` [Example 5-2, (R)-2-Hydroxy-3-[N′-(3-hydroxy-isoxazole-5-carbonyl)-N-(3′-trifluoromethyl-biphenyl-4-ylmethyl)-hydrazino]-propionic acid], the Ki was 12.6 to 100 nM.

As to `O=C(NN(Cc1ccc(-c2cccc(O)c2)cc1)C[C@H](O)C(=O)O)c1cc(O)no1` [Example 5-3, (S)-2-Hydroxy-3-[N-(3′-hydroxy-biphenyl-4-ylmethyl)-N′-(3-hydroxy-isoxazole-5-carbonyl)-hydrazino]-propionic acid], the inhibition constant Ki was 1.26 to 10 nM.

`O=C(NN(Cc1ccc(-c2cc(Cl)ccc2F)cc1)C[C@@H](O)C(=O)O)c1nn(-c2cccc(Cl)c2)c(=O)[nH]1` [Example 8-67, (R)-3-{N-(5′-Chloro-2′-fluoro-biphenyl-4-ylmethyl)-N′-[1-(3-chloro-phenyl)-5-oxo-4,5-dihydro-1H-[1,2,4]triazole-3-carbonyl]-hydrazino}-2-hydroxy-propionic acid]: the Ki is no more than 1 nM.

In the case of `Cc1ccc(Cl)cc1-c1ccc(CN(C[C@@H](O)C(=O)O)NC(=O)c2cn(O)nn2)cc1` [Example 8-80, (R)-3-[N-(5′-Chloro-2′-methyl-biphenyl-4-ylmethyl)-N′-(1-hydroxy-1H-[1,2,3]triazole-4-carbonyl)-hydrazino]-2-hydroxy-propionic acid], the inhibition constant Ki is no more than 1 nM.

On to `CC(C)c1cc(C(=O)NN(Cc2ccc(-c3cc(Cl)ccc3F)cc2)C[C@@H](O)C(=O)O)on1` [Example 8-32, (R)-3-[N-(5′-Chloro-2′-fluoro-biphenyl-4-ylmethyl)-N′-(3-isopropyl-isoxazole-5-carbonyl)-hydrazino]-2-hydroxy-propionic acid], for which the Ki was no more than 1 nM.

As for `O=C(NN(Cc1ccc(-c2ccccc2)cc1)C[C@H](O)C(=O)O)c1cc(Cl)c2[nH]nnc2c1` [Example 2-25, (S)-3-[N-Biphenyl-4-ylmethyl-N′-(7-chloro-1H-benzotriazole-5-carbonyl)-hydrazino]-2-hydroxypropionic acid], the Ki is 126 to 1000 nM.

For the molecule `O=C(NN(Cc1ccc(-c2cc(Cl)ccc2F)cc1)C[C@@H](O)C(=O)O)c1cnn[nH]1` [Example 8-75, (R)-3-[N-(5′-Chloro-2′-fluoro-biphenyl-4-ylmethyl)-N′-(3H-[1,2,3]triazole-4-carbonyl)-hydrazino]-2-hydroxy-propionic acid], the Ki is no more than 1 nM.

`CC(C)CN(C)C(=O)c1cc(C(=O)NN(Cc2ccc(-c3ccccc3)cc2)C[C@@H](O)C(=O)O)[nH]n1` [Example 2-7, (R)-3-{N-Biphenyl-4-ylmethyl-N′-[5-(isobutylmethylcarbamoyl)-2H-pyrazole-3-carbonyl]hydrazino}-2-hydroxypropionic acid]: the Ki was 12.6 to 100 nM.

Consider `O=C(NN(Cc1ccc(-c2cc(Cl)ccc2F)cc1)C[C@@H](O)C(=O)O)c1cc(-c2ccccc2Cl)no1` [Example 8-17, (R)-3-{N-(5′-Chloro-2′-fluoro-biphenyl-4-ylmethyl)-N′-[3-(2-chloro-phenyl)-isoxazole-5-carbonyl]-hydrazino}-2-hydroxy-propionic acid], for which the Ki is no more than 1 nM.

Consider `O=C(NN(Cc1ccc(-c2cccc(Cl)c2)cc1)C[C@@H](O)C(=O)O)c1cc(-c2ccccc2F)no1` [Example 4-31, (R)-3-{N-(3′-Chlorobiphenyl-4-ylmethyl)-N′-[3-(2-fluorophenyl)-isoxazole-5-carbonyl]-hydrazino}-2-hydroxy-propionic acid], for which the inhibition constant (Ki) was 1.26 to 10 nM.

For the molecule `O=C(NN(Cc1ccc(-c2cccc(Cl)c2)cc1)C[C@@H](O)C(=O)O)c1cc(C2CC2)[nH]n1` [Example 4-10, (R)-3-[N-(3′-Chlorobiphenyl-4-ylmethyl)-N′-(5-cyclopropyl-1H-pyrazole-3-carbonyl)-hydrazino]-2-hydroxy-propionic acid], the Ki is 1.26 to 10 nM.

Source of the values: US9873696B2, “Neprilysin inhibitors” (THERAVANCE BIOPHARMA R&D IP, LLC, priority 2010, dated 2018).
